Data as given in patent US20240180882A1, “COMPOUNDS FOR PROTECTION OF NOISE-INDUCED HEARING-LOSS” (The Regents of the University of California, priority 2021, published 2024).
Where two headings read alike, the source gives them in different places.

Experiments:
[1] = Drug distribution of Compound 1 in mouse plasma, brain and perilymph after oral dosing; type: in vivo; details: 2 h after a 300 mg/kg p.o. dose
Method: Complete ADME and PK assessment of Compound 1 and Compound 2 at several doses by oral and intratympanic (IT) dosing in wild-type mice and in transgenic efflux-pump knock-out mice to benchmark compound exposure. […] Drug distribution of Compound 1 in a mouse was determined after dosing at 300 mg/kg.

PAMPA permeability = type: in vitro ADME
six-week-old B6 mice = assay: Noise-induced hearing loss in mice after moderate noise exposure (ABR thresholds, IHC synaptic ribbons), orally administered compound; type: in vivo, mouse
Description: FIGS. 9A-9C depict that Compound 1 administration is protective against mid- to high-frequency hearing loss and synaptic ribbon loss. (A) Threshold elevation two-weeks after moderate noise exposure is reduced in six-week-old B6 mice treated with orally administered Compound 1 either prior or after noise exposure. […] (C) Quantification of paired synaptic ribbons in mice two weeks after exposure to moderate noise given vehicle (top row) and Compound 1 (bottom row). (n=4; scale bar=[…]).
Inducing NIHL in mice. To induce NIHL, mice are exposed to octave band noise (OBN) with a center frequency of 10 kHz for 2 hours using a method adapted from Kujawa, Sharon G., and M. Charles Liberman. “Adding insult to injury: cochlear nerve degeneration after “temporary” noise-induced hearing loss.” Journal of Neuroscience 29.45 (2009): 14077-14085., which is incorporated herein by reference in its entirety.
There has been increasing interest in AMPK activation in human disease. […] The activation pathways and downstream targets of AMPK differ depending on its subcellular localization (FIG. 8C). In response to energy stress, LKB1 activates cytoplasmic and lysosomal AMPK in an axin-dependent manner as exemplified by phosphorylation of the AMPK target ACC1, whereas it activates mitochondrial AMPK in an axin-independent manner as exemplified by phosphorylation of the AMPK target ACC2. […]

AMPK = AMPK activation in inner and outer hair cells of treated mice; type: in vivo, mouse
Description: There has been increasing interest in AMPK activation in human disease. […] The activation pathways and downstream targets of AMPK differ depending on its subcellular localization (FIG. 8C). In response to energy stress, LKB1 activates cytoplasmic and lysosomal AMPK in an axin-dependent manner as exemplified by phosphorylation of the AMPK target ACC1, whereas it activates mitochondrial AMPK in an axin-independent manner as exemplified by phosphorylation of the AMPK target ACC2. By contrast, activation of nuclear AMPK in response to elevated intracellular Ca^2+ levels are mediated by CaMKK2. For the observed noise-induced activation of nuclear AMPK in IHCs, in the absence of which (γ2 deficiency) mice suffer greater synaptic ribbon morphometric changes and NIHL (FIGS. 3A-3D & 4A-4E), AMPK may be activated by CaMKK2, especially given that physiological sound relay to the auditory nerve in IHCs involves transient Ca2+ elevation.

[2] = Concentration in perilymph and plasma following intratympanic dosing in two mouse strains (LC-MS/MS); type: in vivo, C57BL/6J and FVB mice; details: 5 μL of 5 mg/mL in 5% DMSO-95% Poloxamer 407 solution, all plasma data points except one
Method: Compound 1 was dissolved DMSO and added to a cold solution of 20% Poloxamer 407 in PBS. The mixture was vortexed to give a solution of final solution of 5 mg/mL Compound 1 in 5% DMSO-95% Poloxamer 407 solution.
In fully anesthetized mice, the mouse bulla was reached through the digastric and sternocleidomastoid muscles and a 27-gauge needle was used to drill an opening adjacent to the round window niche. 5 μL of Compound 1 in the cold 5%/95% DMSO/Poloxamer 407 hydrogel vehicle was introduced by intratympanic injection in both C57BL/6J and FVB mice. Upon reaching the desired time point, mice were euthanized under deep anesthesia. Blood from the heart was collected to determine drug plasma levels. The mouse bulla was re-exposed to verify the injection site and all possible drug remaining were removed from inner ear before collecting the perilymph from the apical side of the cochlea.
Drug levels were measured using LC-MS/MS (Q-trap) with 500 nM indomethacin as the internal standard. Perilymph samples were diluted 10× in plasma. An aliquot of 1 μL sample was protein precipitated with 50 μL IS, the mixture was vortex-mixed well and centrifuged at 3600 rpm for 10 min, Room Temp. 10 μL supernatant was injected for LC-MS/MS analysis. […]

[3] = Test article handling / stability information; type: physicochemical; details: room temp
[4] = analysis of known AMPK activators; cited from earlier work
[5] = preclinical data; cited from earlier work

concentration at 2 h ([1]; brain, read-out: Brain level of Compound 1): 45 ± 5 µM | concentration at 2 h ([1]; perilymph, read-out: Perilymph level of Compound 1): 0.87 ± 0.04 µM | concentration at 2 h ([1]; plasma, read-out: Plasma level of Compound 1): 443 ± 64 µM | Papp (PAMPA permeability): 24 ×10⁻⁶ cm/s | Plasma concentration following intratympanic dosing [2]: below the level of detection | Stability of test article [3]: Compound 1 stable at room temp
Structure (SMILES): O[C@@H]1CO[C@H]2[C@@H]1OC[C@H]2Oc1nc2nc(-c3ccc(-c4ccccc4)cc3)c(Cl)cc2[nH]1 [Compound 1, (3R,3aR,6R,6aR)-6-((5-([1,1′-biphenyl]-4-yl)-6-chloro-3H-imidazo[4,5-b]pyridin-2-yl)oxy)hexahydrofuro[3,2-b]furan-3-ol]
ABR threshold elevation two weeks after moderate noise exposure (six-week-old B6 mice; orally administered either prior or after noise exposure, six-week-old B6 mice): reduced | IHC (32 kHz region) synaptic ribbon counts after moderate noise exposure (six-week-old B6 mice; two weeks after exposure to moderate noise, vs vehicle, n=4): preservation | AMPK activation in hair cells (AMPK): nuclear and cytoplasmic activation of AMPK in both inner and outer hair cells | Passive permeability (in words) [4]: high passive permeability | Effect on glucose homeostasis [5]: improve glucose homeostasis
